# Data reported in patent US10251869B2, “Compositions and methods of inhibiting metallo-β-lactamases” (priority 2014, dated 2019).
# Where two headings read alike, the source gives them in different places.
# What was measured:
# [1] = system: E. coli DH10B pBCSK(−) producing VIM-24 (R228L); experiment: MIC by agar dilution, E. coli DH10B producing VIM-24; format: cell-based; conditions: Escherichia coli, read-out: MIC
# Experimental: (§1) E. coli DH10B (Invitrogen, Carlsbad, Calif.) was used as a host strain for pBCSK (−) blaVIM-2, and to obtain a mutant library at position 228 by site-saturation mutagenesis, using the QuickChange XL Site-directed Mutagenesis Kit (Stratagene). Briefly, primers that capture all 19 variants at MBL position 228 were designed and PCR mutagenic reactions were conducted using pBCSK (−) blaVIM-2 as a template, and transformed into E. coli DH10B. Single colonies were selected for plasmid purification, and successful mutagenesis was verified by complete DNA sequencing.
# (§2) The effect of Zn^2+ availability was also tested by agar dilution using MH supplemented with 250 μM ZnSO4 or 5 μM EDTA. Reported values are the mode of at least 3 biological replicates.
# [2] = system: E. coli DH10B pBCSK(−) producing VIM-2 (228R); experiment: MIC by agar dilution, E. coli DH10B producing VIM-2; format: cell-based; conditions: Escherichia coli, read-out: MIC
# From the text: A forward primer containing the SacI restriction site and a reverse primer with the BamHI restriction site were used to amplify blaVIM-2 including the pET24a(+) ribosomal binding site, using plasmid pET-24a(+)-blaVIM-2 as template. The product was then subcloned into phagemid pBCSK (−) (Agilent (Santa Clara, Calif.)) using the above restriction sites, and thus placing the blaVIM-2 open reading frame under control of the lac promoter, to yield phagemid pBCSK (−) blaVIM-2.
# as §1, §2
# [3] = system: E. coli DH10B pBCSK(−) producing R228P variant; experiment: MIC by agar dilution, E. coli DH10B producing VIM-2 R228P; format: cell-based; conditions: Escherichia coli
# Experimental: as §1, §2
# [4] = system: E. coli DH10B pBCSK(−) producing R228Y variant; experiment: MIC by agar dilution, E. coli DH10B producing VIM-2 R228Y; format: cell-based; conditions: Escherichia coli
# Experimental: as §1, §2
# E. coli pBC SK(−) = experiment: MIC by agar dilution, E. coli DH10B host with empty phagemid; format: cell-based; conditions: Escherichia coli
# Experimental: as §1, §2
# [5] = system: E. coli DH10B pBCSK(−) producing R228M variant; experiment: MIC by agar dilution, E. coli DH10B producing VIM-2 R228M; format: cell-based; conditions: Escherichia coli
# Experimental: as §1, §2
# [6] = system: E. coli DH10B pBCSK(−) producing R228Q variant; experiment: MIC by agar dilution, E. coli DH10B producing VIM-2 R228Q; format: cell-based; conditions: Escherichia coli
# Experimental: as §1, §2
# [7] = system: E. coli DH10B pBCSK(−) producing R228K variant; experiment: MIC by agar dilution, E. coli DH10B producing VIM-2 R228K; format: cell-based; conditions: Escherichia coli
# Experimental: as §1, §2
# VIM-2 = target: T1, VIM-2 (Pseudomonas aeruginosa, UniProt Q9K2N0); experiment: BTZ inhibition kinetics of nitrocefin hydrolysis by VIM-2; format: biochemical, P. aeruginosa; conditions: for k−2: rate constant for breakdown of E*I; for k2: rate constant for formation of E*I
# T1 construct: made in house; host or cells: E. coli BL21(DE3) pLys, plasmid pET-24a(+)-blaVIM-2-S21
# From the text: (§3) Analysis of BTZ inhibition kinetics. Models involving one, or two-step slow binding were considered to analyze BTZ inhibition of NFC hydrolysis by VIM-2 and VIM-24 (Scheme 1).
# (§4) Here E represents the free enzyme, and I the free inhibitor, EI is the final enzyme-inhibitor complex for a single step slow binding mechanism, and E*I is the enzyme-inhibitor complex formed after conformational changes in a two-step slow binding mechanism. Therefore, the dissociation constant for the EI complex (Ki), also called the inhibitor constant, is defined as Ki=k−1/k1; the dissociation constant for the E*I complex (Ki′) is defined as Ki′=k−2/k2, and the overall dissociation constant for the two-step mechanism (Ki*) is defined as Ki*=Ki/(1+([…])).
# (§5) The Ki for each inhibitor was determined by direct competition assays under steady-state conditions. The initial velocity was measured in the presence of a constant concentration of enzyme (3 nM for VIM-2 and 4 nM for VIM-24) with increasing concentrations of inhibitor (5-60 μM) against a fixed concentration (5 x KM) of the indicator substrate, NCF, as previously described (42-44). The reactions were started by addition of VIM-2 or VIM-24 to substrate or to mixtures of substrate and inhibitor. Data were linearized by plotting inverse initial steady-state velocities (1/v0) against inhibitor concentration (I). Ki (observed) was determined by dividing the value for the y intercept by the slope of the line. Ki determinations were corrected to account for the affinity of NCF for the β-lactamase according to equation 3.
# (§6) Measurements of association rate constants for inhibitor binding were carried out at 25° C. in 10 mM HEPES at pH 7.5 supplemented with 200 mM NaCl, 50 μM […] and 50 μg/ml BSA, in the presence of several concentrations of each compound. Reactions were then initiated by the addition of β-lactamase (3 nM VIM-2 or 4 nM VIM-24) to a mixture of 50 μM NCF and each BTZ without pre-incubation. Inhibitor association rate constants were estimated from linear extrapolation of the observed rate constant for inhibition (kobs), which was obtained by fitting progress curves of NFC hydrolysis to Eq. 4:
# (§7) As previously described, the linear dependence of kobs vs. [I] at limiting I concentration approximates second-order rate constant k2/Ki. The observed second-order rate constant also includes an adjustment for competition between inhibitor and substrate binding (Eq. 5).
# (§8) Also, vs calculated from the progress curves of NCF hydrolysis for each concentration of inhibitor were used to determine Ki*, according to the relationship shown in equation 6 (5). The value reported is the mean of three velocities±SD.
# (§9) To further test the time-dependent inhibition mechanism of inhibitor binding, assays using dilutions of pre-formed complexes were performed. For these experiments, 1 μM of enzyme was incubated with varying concentrations of the inhibitor which allowed for complete inactivation of the enzyme during the 5 min incubation at 25° C. The reactions were then diluted 2,000-fold in 10 mM HEPES at pH 7.5 supplemented with 200 mM NaCl, 50 μM […] and 50 μg/ml BSA, which contained 50 μM NCF. Reactivation of the enzyme based on NCF hydrolysis was monitored over time. Control reaction with the free enzyme was performed in the same fashion.
# VIM-24 = target: T2, VIM-24 (Escherichia coli, UniProt Q5U7L7, R205L); experiment: BTZ inhibition kinetics of nitrocefin hydrolysis by VIM-24; format: biochemical; conditions: for k−2: rate constant for breakdown of E*I; for k2: rate constant for formation of E*I
# T2 construct: which corresponds to cleavage after residues 20 (plus an additional Met residue on the N-terminus); made in house; host or cells: E. coli BL21(DE3) pLys, plasmid pET-24a(+)-blaVIM-24-S21
# From the text: as §3, §4, §5, §6, §7, §8, §9
# [8] = system: VIM-24 producing K. pneumoniae; experiment: Imipenem MIC of clinical isolate, VIM-24 K. pneumoniae; format: cell-based; conditions: Klebsiella pneumoniae
# [9] = system: VIM-2 producing P. aeruginosa; experiment: Imipenem MIC of clinical isolate, VIM-2 P. aeruginosa; format: cell-based
# [10] = system: C[C@@H](O)[C@H]1C(=O)N2C(C(=O)O)=C(SCCN=CN)C[C@H]12; experiment: Steady-state kinetic parameters of substrate hydrolysis by VIM-2; format: biochemical, P. aeruginosa; conditions: other: VIM-2, pH 7.5, 25° C., average ± SD, triplicate
# From the text: (§10) Steady-state reactions were followed using an Agilent (Santa Clara, Calif.) 8453 Diode Array spectrophotometer as previously described. […] For ceftazidime and cefepime, a 0.2-cm path length quartz cuvette was used. A nonlinear leastsquares fit of the data (Henri Michaelis-Menten equation) using Enzfitter (Biosoft Corporation, Ferguson, Mo.) was employed to obtain the steady-state kinetic parameters Vmax and KM according to equation 1.
# (§11) In this equation the observed first-order rate constant k=kcat/KM*[E].
# [11] = system: CC(=O)OCC1=C(C(=O)O)N2C(=O)[C@@H](NC(=O)Cc3cccs3)[C@H]2SC1; experiment: as above; format: biochemical, P. aeruginosa; conditions: other: VIM-2, pH 7.5, 25° C., average ± SD, triplicate
# From the text: as §10, §11
# [12] = system: O=C(Cc1cccs1)N[C@@H]1C(=O)N2C(C(=O)O)=C(/C=C/c3ccc([N+](=O)[O-])cc3[N+](=O)[O-])CS[C@H]12; experiment: as above; format: biochemical, P. aeruginosa; conditions: other: VIM-2, pH 7.5, 25° C., average ± SD, triplicate
# From the text: as §10, §11
# [13] = initial complex EI, NCF as reporter substrate
# [14] = overall dissociation constant of two-step mechanism (E*I)
# [15] = MHA supplemented with 5 μM EDTA
# [16] = MHA supplemented with 250 μM Zn2+
compound,measurement,setting,value
CO/N=C(\C(=O)N[C@@H]1C(=O)N2C(C(=O)O)=C(COC(C)=O)CS[C@H]12)c1csc(N)n1 [Cefotaxime],MIC,[1]; MHA,16 µg/mL
same,MIC,[2]; MHA,8 µg/mL
same,MIC,[3]; MHA,1 µg/mL
same,MIC,[4]; MHA,16 µg/mL
same,MIC,E. coli pBC SK(−); MHA,0.06 µg/mL
same,MIC,[5]; MHA,16 µg/mL
same,MIC,[6]; MHA,32 µg/mL
same,MIC,[7]; MHA,1 µg/mL
O=C(O)[C@H]1CS[C@@H]2CS[C@@H](CS)N12 [D-CS319],Ki,VIM-2; [13],5400 ± 400 nM
same,Ki,VIM-2; [14],180 ± 20 nM
same,k−2,VIM-2,0.0003 ± 1 × 10^−4 s^−1
same,k2,VIM-2,0.01 ± 1 × 10^−3 s^−1
same,k−2,VIM-24,0.004 ± 1 × 10^−3 s^−1
same,k2,VIM-24,0.07 ± 4 × 10^−3 s−1
CC1(C)SC2CSC(CS)N2C1C(=O)O [D-VC26],Ki,VIM-2; [13],14000 ± 1000 nM
same,Ki,VIM-2; [14],100 ± 30 nM
same,k−2,VIM-2,0.0006 ± 4 × 10^−4 s^−1
same,k2,VIM-2,0.09 ± 4 × 10^−3 s^−1
same,k−2,VIM-24,0.00007 ± 1 × 10^−5 s^−1
same,k2,VIM-24,0.01 ± 3 × 10^−3 s−1
C[C@@H](O)[C@H]1C(=O)N2C(C(=O)O)=C(SCCN=CN)C[C@H]12 [Imipenem],MIC,[1]; [15],0.5 µg/mL
same,MIC,[1]; [16],1 µg/mL
same,MIC,[1]; MHA,0.5 µg/mL
same,MIC,[2]; [15],0.5 µg/mL
same,MIC,[2]; [16],1 µg/mL
same,MIC,[2]; MHA,0.5 µg/mL
same,MIC,[3]; MHA,0.5 µg/mL
same,MIC,[3]; [15],≤ 0.125 µg/mL
same,MIC,[3]; [16],0.25 µg/mL
same,MIC,[8]; VIM-24 producing K. pneumoniae,2 µg/mL
same,MIC,[8]; VIM-24 producing K. pneumoniae clinical isolate,1 µg/mL
same,MIC,[9]; Pseudomonas aeruginosa,32 µg/mL
same,MIC,[9]; VIM-2 harboring P. aeruginosa clinical isolate,32 µg/mL
same,MIC,[4]; MHA,1 µg/mL
same,MIC,[4]; [15],1 µg/mL
same,MIC,[4]; [16],1 µg/mL
same,MIC,E. coli pBC SK(−); MHA,0.25 µg/mL
same,MIC,E. coli pBC SK(−); [15],≤ 0.125 µg/mL
same,MIC,E. coli pBC SK(−); [16],0.25 µg/mL
same,MIC,[5]; MHA,2 µg/mL
same,MIC,[5]; [15],1 µg/mL
same,MIC,[5]; [16],4 µg/mL
same,MIC,[6]; MHA,4 µg/mL
same,MIC,[6]; [15],4 µg/mL
same,MIC,[6]; [16],> 4 µg/mL
same,MIC,[7]; MHA,0.25 µg/mL
same,MIC,[7]; [15],0.25 µg/mL
same,MIC,[7]; [16],0.25 µg/mL
VIM-2 (Pseudomonas aeruginosa),Km,[10],12 ± 1 µM
same,kcat,[10],45 ± 1 s⁻¹
same,kcat/Km,[10],3.6e+06 M⁻¹ s⁻¹
same,Km,[11],17 ± 2 µM
same,kcat,[11],168 ± 8 s⁻¹
same,kcat/Km,[11],9.8e+06 M⁻¹ s⁻¹
same,Km,[12],13 ± 1 µM
same,kcat,[12],430 ± 20 s⁻¹
same,kcat/Km,[12],3.3e+07 M⁻¹ s⁻¹
